Reference: patent US20230210834A1, “RNA METHYLTRANSFERASE INHIBITOR, SCREENING METHOD THEREFOR, ANTI-CANCER AGENT EFFICACY ASSESSMENT MARKER, AND KIT FOR EFFECTIVELY PREDICTING FTSJ1 INHIBITOR” (National University Corporation Okayama University, priority 2019, published 2023)

Legend:
MGG18 = experiment: Sphere-forming ability (anchorage-independent cell proliferation), MGG18; type: cell-based, human; conditions: MGG18 (high FTSJ1 expression), 1 week, 0-5000 nM; FIG. 4B
Method: (§1) To verify whether the expression analysis of these gene clusters contributes to predicting the anti-cancer effect by the FTSJ1 inhibitors, the FTSJ1 gene was actually used as an example to analyze the anti-cancer effect of the FTSJ1 inhibitor PVZF2001 on human malignant brain tumor cell lines. Human malignant brain tumor cell lines MGG4, MGG8, MGG18, MGG23 were treated with stem cell medium (Neurobasal, B-27, N-2, 20 ng/mL EGF, 20 ng/mL bFGF) containing different concentrations (0 nm, 200 nM, 500 nM, 1000 NM, 2000 NM, 5000 nM) of PVZF2001 for 1 week, and anchorage-independent cell proliferation was evaluated based on sphere-forming ability.

[1] = system: polyglutamine luciferase reporter; experiment: Screening: polyglutamine luciferase reporter assay in NUGC3 cells (luminescence % of DMSO); type: cell-based, human; conditions: NUGC3 cells, luminescence relative to DMSO
MGG4 = experiment: Sphere-forming ability (anchorage-independent cell proliferation), MGG4; type: cell-based, human; conditions: MGG4 (high FTSJ1 expression), 1 week, 0-5000 nM; FIG. 4B
Method: as §1

[2] = system: triple-negative breast cancer cell line MDA-MB-231; experiment: Anti-tumor effect evaluation test in MDA-MB-231 tumor model mice; type: in vivo, immunodeficient mice (BALB/c-nu/nu); conditions: 20 mg/kg intraperitoneally every other day in corn oil; FIG. 1 and 2
Method: A cell suspension (1×10^6 cells/100 μL), in which triple-negative breast cancer cell line MDA-MB-231 was suspended in phosphate buffer (PBS, produced by FUJIFILM Wako Pure Chemical Corporation), was inoculated subcutaneously in the dorsal lumbar region of immunodeficient mice (BALB/c-nu/nu, female, 6 weeks old, purchased from Shimizu Laboratory Supplies Co., Ltd.) using a syringe with a 23 G injection needle (Terumo Corporation). After confirming that the cancer cells engrafted under the skin of the mice to form tumor tissues, and that the tumor volume reached 100 mm^3, the obtained tumor model mice were used for the following evaluation test. First, each compound for evaluation was dissolved in corn oil (produced by Sigma-Aldrich Co., LLC) and administered intraperitoneally. PVZF0024 was administered at 100 mg/kg and PVZF2001 was administered at 20 mg/kg to the tumor model mice every other day. At each administration, the tumor diameter was measured with a caliper. The tumor volume was calculated according to the following formula: V=(3.14×D×d^2)/6 (wherein V is the tumor volume, D is the tumor major axis, and d is the tumor minor axis) (Wu. et al., Clin. Cancer Res., 2013 Oct. 15; 19(20): 5699-5710).

MGG23 = experiment: Sphere-forming ability (anchorage-independent cell proliferation), MGG23; type: cell-based, human; conditions: MGG23 (low FTSJ1 expression), 1 week, 0-5000 nM; FIG. 4B
Method: as §1

## CC(C)c1cc(C(C)C)c(S(=O)(=O)CC2CC(C)(C)CC(C)(C)C2)c(C(C)C)c1 [PVZF2001]
MGG18
  anchorage-independent cell proliferation (sphere-forming ability): showed proliferation inhibition at low concentrations
[1]; 5 μM
  Polyglutamine: 41.05%
[1]; 10 μM
  Polyglutamine: 19.01%
MGG4
  anchorage-independent cell proliferation (sphere-forming ability): showed proliferation inhibition at low concentrations
[2]
  antitumor effect (tumor growth, tumor volume): significantly inhibit tumor growth
MGG23
  anchorage-independent cell proliferation (sphere-forming ability): showed cell proliferation even when treated at a concentration as high as 2000 NM
